In patent US4329460A, “Uracil derivatives and production thereof” (Takeda Chemical Industries, Ltd., priority 1976, dated 1982):
Values after ≈ are worked out from the molar mass of the structure shown.

Tests used:
leukemia P 388 = assay: life-prolonging effect upon leukemia P 388 in mice; assay type: in vivo, BDF1 mice; conditions: intraperitoneal, median survival time treated/control
Description: (1) The procedure of a test on the life-prolonging effect upon leukemia P 388 in mice
One tenth ml of diluted ascitic fluid containing 1×10^5 cells was implanted in BDF1 mice weighing 18 to 25 g. A suspension of the test-compound is injected intraperitoneally at a constant rate of volume of 0.1 ml/10 g body weight. As the detailed experimental method, the Protocols for Screening Chemical Agents (Geran, R. I., Greenberg, N. H., Macdonald, M. M., Schumacher, A. M., and Abbott, B. J.: Protocols for Screening Chemical Agents and Natural Products against Animal Tumors and Other Biological Systems. Cancer Chemotherapy Rept., 3 (Part 3) 7, 1972) is adopted.
The results are recorded in compliance to the T/C % value calculated on the basis of the median survival time of treated to control animals.

KB cells = assay: Inhibition of KB cell multiplication; assay type: cell-based; conditions: Homo sapiens, 72 h, cell count on 4th day after seeding, read-out: ED50, inhibition of cell growth
Description: (1) Inhibition of KB cell multiplication
2×10^4 cells were suspended in 1 ml of Eagle's Minimal Essential Medium (MEM)+10% fetal calf serum (MEM.10 Fcs) and seeded in a glass dish (d=1.8 cm) containing a round coverslip (d=1.5 cm).
On the first day after seeding, three coverslips (per test group) were taken out and transferred to a single glass dish (d=4.5 cm) holding 5 ml of MEM.10 Fcs containing a verying concentration of the compound. On the 4th day after seeding, the number of cells per coverslip (3 slips for each concentration level) was determined with a Coulter counter. The result was expressed in the concentration of the drug giving a cell count of 50% (ED50) with the average number of cells for the control (not medicated) group on the 4th day being taken as 100%.

BAV3-infected C34 cells = assay: Inhibition of the induction of cell multiplication in BAV3-infected C34 cells; assay type: cell-based; conditions: Mus musculus, 96 h, (V-M) difference on 6th day after seeding, read-out: ED50, inhibition of cell growth
Description: (2) Inhibition of the induction of cell multiplication in BAV3-infected C34 cells
1×10^5 cells were suspended in 1 ml of Eagle's MEM+10% fetal calf serum (MEM.10 Fcs) and seeded in a glass dish (d=1.8 cm) containing a round coverslip (d=1.5 cm).
On the 2nd day after seeding, infection (37° C., 120 min.) (mock-infection or virus infection; in the case of the latter, multiplicity of infection per cell=100-200 PFU/cell) was carried out. After this operation, one test group (3 coverslips) was taken out and transferred to a glass dish (d=4.5 cm) holding 5 ml of MEM.2 Fcs containing each concentration of compound.
On the 6th day after seeding, the number of cells per coverslip was determined with a Coulter counter. For each experimental group, the difference in all members between virus-infected cells (V) and mock-infected cells (M) was calculated. The result was expressed in the concentration of the drug giving a (V-M) value of 50% (ED50) for the control (not medicated) group as 100%.

AC cells = assay: Inhibition of AC cell multiplication; assay type: cell-based; conditions: Rattus norvegicus, 72 h, cell count on 3rd day following replacement of medium, read-out: ED50, inhibition of cell growth
Description: (3) Inhibition of Ac cell multiplication
1×10^5 AC cells (2 ml of Eagle's MEM, with 10% fetal calf serum were seeded in a Falcon dish (in. diam. 3.5 cm). On the 24th hour, replacement was made with the above culture medium containing a varying concentration of drug. The number of cells was determined on the 3rd day following the replacement of medium. The pharmacologic effect was expressed in ED50 (the concentration of the drug giving a cell count of 50% for the treated group with the number of cells for the control group being taken as 100%.

Compound	T/C(%) (leukemia P 388; 50 mg/kg/day)	T/C(%) (leukemia P 388; 100 mg/kg/day)	T/C(%) (leukemia P 388; 200 mg/kg/day)	IC50 (KB cells)	IC50 (BAV3-infected C34 cells)	IC50 (AC cells)
CCOC(=O)C1(F)C(=O)NC(=O)NC1OCC (centres unmarked) [ethyl 5-fluoro-6-ethoxy-1,2,3,4,5,6-hexahydro-2,4-dioxopyrimidine-5-carboxylate]	130%	143%	160%	2.8 µg/mL (≈ 11.3 µM)	0.023 µg/mL (≈ 0.0927 µM)	
COC(=O)C1(F)C(=O)NC(=O)NC1OC (centres unmarked) [methyl 5-fluoro-6-methoxy-1,2,3,4,5,6-hexahydro-2,4-dioxopyrimidine-5-carboxylate]	208%	217%	243%	3 µg/mL (≈ 13.6 µM)	0.023 µg/mL (≈ 0.104 µM)	0.12 µg/mL (≈ 0.545 µM)
